Measured values published in US9988635B2, “Modulation of growth hormone receptor expression and insulin-like growth factor expression” (Antisense Therapeutics Limited, priority 2003, dated 2018).
In the oligonucleotide strings, read from the 5' end, every base follows the letter of its sugar. An asterisk marks phosphorothioate; unmarked linkages are phosphodiester. Other units and linkages are bracketed, terminal groups are in braces. A string of capitals states the bases alone. e = 2'-O-(2-methoxyethyl) (MOE); [5mC] = 5-methylcytosine; d = 2'-deoxy (DNA)

These substances were tested on mouse growth hormone receptor mRNA (assay: Inhibition of mouse growth hormone receptor mRNA levels in b.END cells, quantitative real-time PCR, incl. dose-response). Conditions: averages from three experiments.
Type: cell-based
Procedure: The mouse brain endothelial cell line b.END was obtained from Dr. Werner Risau at the Max Plank Instititute (Bad Nauheim, Germany). b.END cells were routinely cultured in DMEM, high glucose (Gibco/Life Technologies, Gaithersburg, Md.) supplemented with 10% fetal calf serum (Gibco/Life Technologies, Gaithersburg, Md.). Cells were routinely passaged by trypsinization and dilution when they reached 90% confluence. Cells were seeded into 96-well plates (Falcon-Primaria #3872) at a density of 3000 cells/well for use in RT-PCR analysis.
When cells reached 65-75% confluency, they were treated with oligonucleotide. For cells grown in 96-well plates, wells were washed once with 100 μL OPTI-MEM™-1 reduced-serum medium (Invitrogen Corporation, Carlsbad, Calif.) and then treated with 130 μL of OPTI-MEM™-1 containing 3.75 μg/mL LIPOFECTIN™ (Invitrogen Corporation, Carlsbad, Calif.) and the desired concentration of oligonucleotide. Cells are treated and data are obtained in triplicate. After 4-7 hours of treatment at 37° C., the medium was replaced with fresh medium. Cells were harvested 16-24 hours after oligonucleotide treatment.
Total RNA was isolated using an RNEASY 96™ kit and buffers purchased from Qiagen Inc. (Valencia, Calif.) following the manufacturer's recommended procedures. Briefly, for cells grown on 96-well plates, growth medium was removed from the cells and each well was washed with 200 μL cold PBS. 150 μL Buffer RLT was added to each well and the plate vigorously agitated for 20 seconds. 150 μL of 70% ethanol was then added to each well and the contents mixed by pipetting three times up and down. The samples were then transferred to the RNEASY 96™ well plate attached to a QIAVAC™ manifold fitted with a waste collection tray and attached to a vacuum source. Vacuum was applied for 1 minute. 500 μL of Buffer RW1 was added to each well of the RNEASY 96™ plate and incubated for 15 minutes and the vacuum was again applied for 1 minute. An additional 500 μL of Buffer RW1 was added to each well of the RNEASY 96™ plate and the vacuum was applied for 2 minutes. 1 mL of Buffer RPE was then added to each well of the RNEASY 96™ plate and the vacuum applied for a period of 90 seconds. The Buffer RPE wash was then repeated and the vacuum was applied for an additional 3 minutes. The plate was then removed from the QIAVAC™ manifold and blotted dry on paper towels. The plate was then re-attached to the QIAVAC™ manifold fitted with a collection tube rack containing 1.2 mL collection tubes. RNA was then eluted by pipetting 140 μL of RNAse free water into each well, incubating 1 minute, and then applying the vacuum for 3 minutes.
Quantitation of growth hormone receptor mRNA levels was accomplished by real-time quantitative PCR using the ABI PRISM™ 7600, 7700, or 7900 Sequence Detection System (PE-Applied Biosystems, Foster City, Calif.) according to manufacturer's instructions. This is a closed-tube, non-gel-based, fluorescence detection system which allows high-throughput quantitation of polymerase chain reaction (PCR) products in real-time. As opposed to standard PCR in which amplification products are quantitated after the PCR is completed, products in real-time quantitative PCR are quantitated as they accumulate. This is accomplished by including in the PCR reaction an oligonucleotide probe that anneals specifically between the forward and reverse PCR primers, and contains two fluorescent dyes. A reporter dye (e.g., FAM or JOE, obtained from either PE-Applied Biosystems, Foster City, Calif., Operon Technologies Inc., Alameda, Calif. or Integrated DNA Technologies Inc., Coralville, Iowa) is attached to the 5′ end of the probe and a quencher dye (e.g., TAMRA, obtained from either PE-Applied Biosystems, Foster City, Calif., Operon Technologies Inc., Alameda, Calif. or Integrated DNA Technologies Inc., Coralville, Iowa) is attached to the 3′ end of the probe. […]
In the case of “227517 (antisense e[5mC]*eT*eT*e[5mC]*eA*d[5mC]*dT*dA*dA*d[5mC]*d[5mC]*dT*dT*dG*d[5mC]*eA*eG*e[5mC]*eT*eT) [compound 227517]”, the “% INHIB of mouse growth hormone receptor mRNA levels” value (“% INHIB” for short) is reported as 63%. “227508 (antisense eT*eT*e[5mC]*e[5mC]*eA*d[5mC]*dT*d[5mC]*dA*d[5mC]*d[5mC]*d[5mC]*d[5mC]*dA*dG*eT*eT*e[5mC]*eA*eT) [compound 227508]” was tested, and the “% INHIB” value was 51%. In the case of “227479 (antisense eA*eT*eG*eT*e[5mC]*d[5mC]*dT*d[5mC]*dT*dT*dG*dG*dT*dT*dA*eA*eA*eG*e[5mC]*eT) [compound 227479]”, the “% INHIB” value is reported as 59%. For “227486 (antisense e[5mC]*eG*eG*eT*eG*dT*dG*dA*dA*d[5mC]*d[5mC]*dG*dT*dG*dG*eT*eG*eT*eA*eG) [compound 227486]”, the “% INHIB” value was 39%. In the case of “227507 (antisense eG*eT*e[5mC]*e[5mC]*eT*dT*dG*d[5mC]*dT*d[5mC]*d[5mC]*dA*dG*dG*dT*eT*eA*eG*e[5mC]*eA) [compound 227507]”, the “% INHIB” value is reported as 89%. With “227496 (antisense eG*e[5mC]*eA*eT*eT*d[5mC]*dA*dA*dT*dT*dT*d[5mC]*d[5mC]*dT*dG*eA*eA*e[5mC]*eT*eG) [compound 227496]” the “% INHIB” value was 51%. For “227477 (antisense e[5mC]*eA*e[5mC]*eT*eG*dT*dT*d[5mC]*dA*dT*dG*d[5mC]*dT*dG*dT*eA*eA*eT*eT*eT) [compound 227477]”, the “% INHIB” value was 61%. “227460 (antisense eA*eA*e[5mC]*eT*eG*dG*dA*dT*dA*dT*d[5mC]*dT*dT*d[5mC]*dT*eT*e[5mC]*eA*e[5mC]*eA) [compound 227460]” was tested, and the “% INHIB” value was 43%. “227497 (antisense eT*eA*eA*eA*eT*dG*dT*dT*dT*dT*dG*d[5mC]*dA*dT*dA*eT*e[5mC]*e[5mC]*eA*eA) [compound 227497]” was tested, and the “% INHIB” value was 77%. “227465 (antisense eT*eG*eA*eG*eA*dA*dG*dA*dT*d[5mC]*dT*dG*dG*dA*dT*e[5mC]*eA*eA*eT*e[5mC]) [compound 227465]” was tested, and the “% INHIB” value was 51%. For “227454 (antisense eA*eG*eT*eT*eG*dA*dA*dG*dT*dA*dA*d[5mC]*dA*dG*d[5mC]*eT*eG*eT*eT*eT) [compound 227454]”, the “% INHIB” value was 69%. For “227509 (antisense eG*e[5mC]*eA*eG*eT*dT*d[5mC]*dT*dA*dT*d[5mC]*dA*dG*dA*dA*e[5mC]*eT*eT*eT*eG) [compound 227509]”, the “% INHIB” value was 82%. In the case of “227498 (antisense eT*eT*eG*eT*eA*dA*dA*dA*dA*dT*d[5mC]*dT*dA*dA*d[5mC]*eT*eT*eG*eT*eT) [compound 227498]”, the “% INHIB” value is reported as 49%. For “227463 (antisense eA*eT*e[5mC]*eA*eG*d[5mC]*dA*dT*d[5mC]*dT*dT*dA*dA*dT*d[5mC]*e[5mC]*eT*eT*eT*eG) [compound 227463]”, the “% INHIB” value was 39%. For “227520 (antisense e[5mC]*eA*eT*e[5mC]*eT*dT*dA*dA*dT*d[5mC]*d[5mC]*dT*dT*dG*dG*eA*eA*eA*e[5mC]*eA) [compound 227520]”, the “% INHIB” value was 42%. For “227450 (antisense eT*eG*eG*e[5mC]*eT*dT*dT*d[5mC]*d[5mC]*d[5mC]*dT*dT*dT*dT*dA*eG*e[5mC]*eA*eT*eA) [compound 227450]”, the “% INHIB” value was 71%. In the case of “227461 (antisense eT*eG*e[5mC]*eT*eA*d[5mC]*dT*d[5mC]*d[5mC]*dA*dA*dA*dT*dA*dT*eT*e[5mC]*e[5mC]*eA*eA) [compound 227461]”, the “% INHIB” value is reported as 75%. With “227493 (antisense eT*e[5mC]*e[5mC]*e[5mC]*eA*dA*d[5mC]*dA*d[5mC]*dA*dG*dA*dT*dT*dT*eA*eA*eA*eA*e[5mC]) [compound 227493]” the “% INHIB” value was 51%. For “227462 (antisense eG*e[5mC]*eT*eT*eT*dG*dA*dA*dA*dA*dT*dA*dT*dA*dA*e[5mC]*eT*eA*e[5mC]*eA) [compound 227462]”, the “% INHIB” value was 31%. With “227459 (antisense e[5mC]*eT*eG*eA*eA*d[5mC]*dT*d[5mC]*dG*d[5mC]*dT*dG*dT*dA*d[5mC]*eT*eT*eT*eT*e[5mC]) [compound 227459]” the “% INHIB” value was 60%. For “227466 (antisense eT*eT*eG*eT*eA*dG*dT*dT*dA*dT*d[5mC]*dA*dT*dG*dA*eA*eT*eG*e[5mC]*e[5mC]) [compound 227466]”, the “% INHIB” value was 50%. “227472 (antisense eA*eG*eA*eG*e[5mC]*d[5mC]*dA*dA*dG*dG*dG*dA*dA*dG*d[5mC]*eA*eT*e[5mC]*eA*eT) [compound 227472]” was tested, and the “% INHIB” value was 42%. In the case of “227515 (antisense eA*eA*eA*eT*eT*d[5mC]*dT*dT*dA*d[5mC]*dT*dT*dG*dT*d[5mC]*e[5mC]*e[5mC]*e[5mC]*eA*eG) [compound 227515]”, the “% INHIB” value is reported as 37%. “227492 (antisense eT*eA*eA*eA*eA*d[5mC]*dA*dT*dA*dG*dT*dT*dT*dT*dG*eG*eT*eT*eT*eA) [compound 227492]” was tested, and the “% INHIB” value was 7%. For “227504 (antisense eT*eA*e[5mC]*e[5mC]*eT*dG*dA*dG*dA*d[5mC]*d[5mC]*d[5mC]*d[5mC]*dG*d[5mC]*eG*e[5mC]*eA*eG*e[5mC]) [compound 227504]”, the “% INHIB” value was 34%. For “227467 (antisense e[5mC]*eA*eT*e[5mC]*eA*dT*dT*dG*dT*dA*dG*dA*dA*dG*dT*e[5mC]*eG*eG*eG*eT) [compound 227467]”, the “% INHIB” value was 33%. In the case of “227446 (antisense eA*e[5mC]*eA*eA*eA*dG*dA*dT*d[5mC]*d[5mC]*dA*dT*dA*d[5mC]*d[5mC]*eT*eG*eA*eG*eA) [compound 227446]”, the “% INHIB” value is reported as 87%. With “227470 (antisense e[5mC]*eT*e[5mC]*e[5mC]*eA*dA*dG*dG*dA*dT*dA*d[5mC]*d[5mC]*dA*dG*e[5mC]*eT*eG*eA*eT) [compound 227470]” the “% INHIB” value was 82%. In the case of “227506 (antisense e[5mC]*e[5mC]*eT*e[5mC]*e[5mC]*dA*dG*dT*dA*d[5mC]*d[5mC]*dT*d[5mC]*dG*dG*eA*eG*eT*eT*eT) [compound 227506]”, the “% INHIB” value is reported as 69%. With “227447 (antisense eG*e[5mC]*eT*eG*eG*dT*dG*dT*dA*dG*d[5mC]*d[5mC]*dT*d[5mC]*dA*e[5mC]*eT*eT*e[5mC]*e[5mC]) [compound 227447]” the “% INHIB” value was 77%. In the case of “227505 (antisense eT*eA*e[5mC]*e[5mC]*eT*dG*dA*dG*dA*d[5mC]*d[5mC]*d[5mC]*dA*d[5mC]*dA*eA*eG*e[5mC]*eG*eG) [compound 227505]”, the “% INHIB” value is reported as 39%. With “227471 (antisense eA*eG*eG*e[5mC]*eA*d[5mC]*dA*dA*dG*dA*dG*dA*dT*d[5mC]*dA*eG*e[5mC]*eT*eT*e[5mC]) [compound 227471]” the “% INHIB” value was 52%. With “227494 (antisense e[5mC]*eA*eA*eA*eA*dG*d[5mC]*d[5mC]*dA*d[5mC]*d[5mC]*dT*dG*dA*dT*eT*eG*eT*eT*eT) [compound 227494]” the “% INHIB” value was 56%. “227473 (antisense eA*eA*eG*eT*e[5mC]*dA*dA*dT*dG*dT*dT*dT*dG*d[5mC]*d[5mC]*eA*eG*eT*eG*eA) [compound 227473]” was tested, and the “% INHIB” value was 71%. With “227445 (antisense eT*eA*e[5mC]*e[5mC]*eT*dG*dA*dG*dA*d[5mC]*d[5mC]*dT*d[5mC]*dG*dG*eA*eG*eT*eT*eT) [compound 227445]” the “% INHIB” value was 69%.
